According to US9630977B2, “Cephalosporin derivatives and pharmaceutical compositions thereof” (Legochem Biosciences, Inc., priority 2011, dated 2017):
Values after ≈ are worked out from the molar mass of the structure shown.

Key:
Assay in all cases: In vitro antibacterial activity test (broth microdilution)
Assay type in all cases: cell-based
A. baumannii 46 = details: Acinetobacter baumannii, 46, A. baumannii 46
Summary of the method: (§1)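 Susceptibility of clinical bacterial isolates is measured by CLSI broth microdilution. Final drug concentrations range 0.0626–128 ug/mL in 2.5% (V/V) DMSO; MIC90 recorded as lowest concentration blocking visible growth of 90% of organisms.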

A. baumannii 49 = details: Acinetobacter baumannii, 49, A. baumannii 49
Summary of the method: as §1

A. baumannii 52 = details: Acinetobacter baumannii, 52
Summary of the method: as §1

[1] = test system: A. calcoaceticus ATCC15473; details: Acinetobacter calcoaceticus, ATCC15473, A. calcoaceticus ATCC15473
Summary of the method: as §1

E. cloacae β19 = details: Enterobacter cloacae
Summary of the method: as §1

E. coli AG100 = details: Escherichia coli, AG100
Summary of the method: as §1

E. coli β4 = details: Escherichia coli
Summary of the method: as §1

K. pneumoniae 2011E = details: Klebsiella pneumoniae, 2011E
Summary of the method: as §1

K. pneumoniae β10 = details: Klebsiella pneumoniae
Summary of the method: as §1

K. pneumoniae β11 = details: Klebsiella pneumoniae
Summary of the method: as §1

K. pneumoniae β13 = details: Klebsiella pneumoniae
Summary of the method: as §1

K. pneumoniae β14 = details: Klebsiella pneumoniae
Summary of the method: as §1

K. pneumoniae β9 = details: Klebsiella pneumoniae
Summary of the method: as §1

M. catarrhalis 2524 = details: Moraxella catarrhalis, 2524
Summary of the method: as §1

P. aeruginosa 1912E = details: Pseudomonas aeruginosa, 1912E
Summary of the method: as §1

P. aeruginosa 37 = details: Pseudomonas aeruginosa, 37, P. aeruginosa 37
Summary of the method: as §1

P. aeruginosa 40 = details: Pseudomonas aeruginosa, 40
Summary of the method: as §1

P. aeruginosa 43 = details: Pseudomonas aeruginosa, 43
Summary of the method: as §1

P. aeruginosa 6065Y = details: Pseudomonas aeruginosa, 6065Y
Summary of the method: as §1

| Compound | MIC90 (A. baumannii 46) | MIC90 (A. baumannii 49) | MIC90 (A. baumannii 52) | MIC90 [1] | MIC90 (E. cloacae β19) | MIC90 (E. coli AG100) | MIC90 (E. coli β4) | MIC90 (K. pneumoniae 2011E) | MIC90 (K. pneumoniae β10) | MIC90 (K. pneumoniae β11) | MIC90 (K. pneumoniae β13) | MIC90 (K. pneumoniae β14) | MIC90 (K. pneumoniae β9) | MIC90 (M. catarrhalis 2524) | MIC90 (P. aeruginosa 1912E) | MIC90 (P. aeruginosa 37) | MIC90 (P. aeruginosa 40) | MIC90 (P. aeruginosa 43) | MIC90 (P. aeruginosa 6065Y) |
| --- | --- | --- | --- | --- | --- | --- | --- | --- | --- | --- | --- | --- | --- | --- | --- | --- | --- | --- | --- |
| CC(C)(O/N=C(\C(=O)N[C@@H]1C(=O)N2C(C(=O)[O-])=C(/C=C/C[n+]3cnc(N)c(NC(=O)CCN)c3)CSC12)c1nsc(N)n1)C(=O)O (stereo partly shown) [Compound 61] | 128 µg/mL (≈ 189 µM) | 128 µg/mL (≈ 189 µM) | 128 µg/mL (≈ 189 µM) | 1 µg/mL (≈ 1.48 µM) | 16 µg/mL (≈ 23.7 µM) | 0.125 µg/mL (≈ 0.185 µM) | 0.125 µg/mL (≈ 0.185 µM) | 0.25 µg/mL (≈ 0.37 µM) | 1 µg/mL (≈ 1.48 µM) | > 128 µg/mL | 2 µg/mL (≈ 2.96 µM) | 4 µg/mL (≈ 5.92 µM) | 16 µg/mL (≈ 23.7 µM) | < 0.0625 µg/mL | 2 µg/mL (≈ 2.96 µM) | 32 µg/mL (≈ 47.4 µM) | 2 µg/mL (≈ 2.96 µM) | > 128 µg/mL | 32 µg/mL (≈ 47.4 µM) |
| CC(C)(O/N=C(\C(=O)N[C@@H]1C(=O)N2C(C(=O)[O-])=C(/C=C/C[n+]3cnc(N)c(NC(=O)CCN)c3)CSC12)c1nc(N)sc1Cl)C(=O)O (stereo partly shown) [Compound 62] | 16 µg/mL (≈ 22.6 µM) | 32 µg/mL (≈ 45.1 µM) | 32 µg/mL (≈ 45.1 µM) | 1 µg/mL (≈ 1.41 µM) | 4 µg/mL (≈ 5.64 µM) | 0.5 µg/mL (≈ 0.705 µM) | 0.5 µg/mL (≈ 0.705 µM) | 1 µg/mL (≈ 1.41 µM) | 0.5 µg/mL (≈ 0.705 µM) | 1 µg/mL (≈ 1.41 µM) | 1 µg/mL (≈ 1.41 µM) | 1 µg/mL (≈ 1.41 µM) | 1 µg/mL (≈ 1.41 µM) | < 0.0625 µg/mL | 4 µg/mL (≈ 5.64 µM) | 8 µg/mL (≈ 11.3 µM) | 8 µg/mL (≈ 11.3 µM) | 64 µg/mL (≈ 90.2 µM) | 16 µg/mL (≈ 22.6 µM) |
| CC(C)(O/N=C(\C(=O)N[C@@H]1C(=O)N2C(C(=O)[O-])=C(/C=C/C[n+]3cnc(N)c(NC(=O)CCCN)c3)CSC12)c1csc(N)n1)C(=O)O (stereo partly shown) [Compound 63] | 8 µg/mL (≈ 11.6 µM) | 128 µg/mL (≈ 186 µM) | 128 µg/mL (≈ 186 µM) | 1 µg/mL (≈ 1.45 µM) | 16 µg/mL (≈ 23.2 µM) | 0.125 µg/mL (≈ 0.181 µM) | 0.25 µg/mL (≈ 0.363 µM) | 0.25 µg/mL (≈ 0.363 µM) | 0.5 µg/mL (≈ 0.726 µM) | 32 µg/mL (≈ 46.5 µM) | 1 µg/mL (≈ 1.45 µM) | 1 µg/mL (≈ 1.45 µM) | 1 µg/mL (≈ 1.45 µM) | < 0.0625 µg/mL | 2 µg/mL (≈ 2.9 µM) | 32 µg/mL (≈ 46.5 µM) | 4 µg/mL (≈ 5.81 µM) | 128 µg/mL (≈ 186 µM) | 16 µg/mL (≈ 23.2 µM) |
| CC(C)(O/N=C(\C(=O)N[C@@H]1C(=O)N2C(C(=O)[O-])=C(/C=C/C[n+]3cnc(N)c(NC(=O)CCCN)c3)CSC12)c1nc(N)sc1Cl)C(=O)O (stereo partly shown) [Compound 64] | 16 µg/mL (≈ 22.1 µM) | 32 µg/mL (≈ 44.2 µM) | 32 µg/mL (≈ 44.2 µM) | 1 µg/mL (≈ 1.38 µM) | 8 µg/mL (≈ 11.1 µM) | 0.5 µg/mL (≈ 0.691 µM) | 1 µg/mL (≈ 1.38 µM) | 2 µg/mL (≈ 2.77 µM) | 1 µg/mL (≈ 1.38 µM) | 8 µg/mL (≈ 11.1 µM) | 2 µg/mL (≈ 2.77 µM) | 2 µg/mL (≈ 2.77 µM) | 2 µg/mL (≈ 2.77 µM) | < 0.0625 µg/mL | 4 µg/mL (≈ 5.53 µM) | 16 µg/mL (≈ 22.1 µM) | 8 µg/mL (≈ 11.1 µM) | 128 µg/mL (≈ 177 µM) | 32 µg/mL (≈ 44.2 µM) |
| CC(C)(O/N=C(\C(=O)N[C@@H]1C(=O)N2C(C(=O)[O-])=C(/C=C/C[n+]3cnc(N)c(NC(=O)CCCN)c3)CSC12)c1nsc(N)n1)C(=O)O (stereo partly shown) [Compound 65] | 64 µg/mL (≈ 92.8 µM) | 64 µg/mL (≈ 92.8 µM) | 64 µg/mL (≈ 92.8 µM) | 0.5 µg/mL (≈ 0.725 µM) | 32 µg/mL (≈ 46.4 µM) | < 0.0625 µg/mL | 0.125 µg/mL (≈ 0.181 µM) | 0.25 µg/mL (≈ 0.362 µM) | 1 µg/mL (≈ 1.45 µM) | > 128 µg/mL | 2 µg/mL (≈ 2.9 µM) | 2 µg/mL (≈ 2.9 µM) | 16 µg/mL (≈ 23.2 µM) | < 0.0625 µg/mL | 2 µg/mL (≈ 2.9 µM) | 32 µg/mL (≈ 46.4 µM) | 4 µg/mL (≈ 5.8 µM) | > 128 µg/mL | 32 µg/mL (≈ 46.4 µM) |
| CC(C)(O/N=C(\C(=O)N[C@@H]1C(=O)N2C(C(=O)[O-])=C(/C=C/C[n+]3cnc(N)c(NC(=O)CCN)c3N)CSC12)c1csc(N)n1)C(=O)O (stereo partly shown) [Compound 66] | 16 µg/mL (≈ 23.2 µM) | > 128 µg/mL | > 128 µg/mL | 2 µg/mL (≈ 2.9 µM) | 0.25 µg/mL (≈ 0.362 µM) | 0.25 µg/mL (≈ 0.362 µM) | 0.25 µg/mL (≈ 0.362 µM) | 0.5 µg/mL (≈ 0.725 µM) | 0.5 µg/mL (≈ 0.725 µM) | 16 µg/mL (≈ 23.2 µM) | 0.5 µg/mL (≈ 0.725 µM) | 1 µg/mL (≈ 1.45 µM) | 0.5 µg/mL (≈ 0.725 µM) | < 0.0625 µg/mL | 4 µg/mL (≈ 5.8 µM) | 16 µg/mL (≈ 23.2 µM) | 8 µg/mL (≈ 11.6 µM) | > 128 µg/mL | 16 µg/mL (≈ 23.2 µM) |
| CC(C)(O/N=C(\C(=O)N[C@@H]1C(=O)N2C(C(=O)[O-])=C(/C=C/C[n+]3cnc(N)c(NC(=O)CCCN)c3N)CSC12)c1nc(N)sc1Cl)C(=O)O (stereo partly shown) [Compound 67] | 64 µg/mL (≈ 86.7 µM) | 64 µg/mL (≈ 86.7 µM) | 64 µg/mL (≈ 86.7 µM) | 4 µg/mL (≈ 5.42 µM) | 32 µg/mL (≈ 43.3 µM) | 0.5 µg/mL (≈ 0.677 µM) | 2 µg/mL (≈ 2.71 µM) | 2 µg/mL (≈ 2.71 µM) | 4 µg/mL (≈ 5.42 µM) | 8 µg/mL (≈ 10.8 µM) | 2 µg/mL (≈ 2.71 µM) | 4 µg/mL (≈ 5.42 µM) | 8 µg/mL (≈ 10.8 µM) | < 0.0625 µg/mL | 4 µg/mL (≈ 5.42 µM) | 16 µg/mL (≈ 21.7 µM) | 16 µg/mL (≈ 21.7 µM) | > 128 µg/mL | 32 µg/mL (≈ 43.3 µM) |
